Assay results from patent US20110009399A1, “ORGANIC COMPOUNDS” (priority 2007, published 2011).

Each compound was assayed against T1, renin (Homo sapiens, UniProt P00797) (assay: in vitro test of Nussberger et al.: formation of angiotensin I in human plasma, radioimmunoassay). Conditions: values given as 'in the range of about', read-out: IC50, inhibition of the formation of angiotensin I.
T1 construct: This test measures the formation of angiotensin I in human plasma; from tissue; host or cells: human plasma
T1 sequence (P00797 67-406): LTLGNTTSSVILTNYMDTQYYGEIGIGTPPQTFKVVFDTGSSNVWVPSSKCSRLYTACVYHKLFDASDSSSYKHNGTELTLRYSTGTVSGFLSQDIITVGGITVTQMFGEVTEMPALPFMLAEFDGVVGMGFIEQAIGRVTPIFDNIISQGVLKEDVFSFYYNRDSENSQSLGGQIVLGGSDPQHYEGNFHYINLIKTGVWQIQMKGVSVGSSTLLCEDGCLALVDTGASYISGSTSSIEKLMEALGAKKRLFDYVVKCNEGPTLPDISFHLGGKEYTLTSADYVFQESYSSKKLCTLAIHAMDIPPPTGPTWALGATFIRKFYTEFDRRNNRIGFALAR
Assay type: biochemical
Method: The effect of renin inhibitors is detected inter alia experimentally by means of in vitro tests where the reduction in the formation of angiotensin I is measured in various systems (human plasma, purified human renin together with synthetic or natural renin substrate). The following in vitro test of Nussberger et al. (1987) J. Cardiovascular Pharmacol., Vol. 9, pp. 39-44, is used inter alia. This test measures the formation of angiotensin I in human plasma. The amount of angiotensin I formed is determined in a subsequent radioimmunoassay. The effect of inhibitors on the formation of angiotensin I is tested in this system by adding various concentrations of these substances. […] The compounds of the present invention show inhibitory effects in the in vitro systems at minimal concentrations of about 10^−6 to about 10^−10 mol/l.

IC50, 1 to 20 nM:
CCO[C@H](C)COCc1ccc2c(c1)CCO[C@@]21CCNC[C@@H]1OCc1ccc2c(c1)N(CCCOC)CCO2 [Example 2, (1S,3′S)-6-({[(2R)-2-Ethoxypropyl]oxy}methyl)-3′-{[4-(3-methoxypropyl)-3,4-dihydro-2H-1,4-benzoxazin-6-yl]methoxy}-3,4-dihydrospiro[isochromene-1,4′-piperidine]]
COCCCN1CCOc2ccc(CO[C@H]3CNCC[C@@]34OCc3cc(COC[C@@H](C)COC)ccc34)cc21 [Example 7, (1S,3′S)-5-({[(2S)-3-methoxy-2-methylpropyl]oxy}methyl)-3′-{[4-(3-methoxy-propyl)-3,4-dihydro-2H-1,4-benzoxazin-6-yl]methoxy}-3H-spiro[2-benzofuran-1,4′-piperidine]]
CCOC(C)COCc1ccc2c(c1)OCCOC21CCNCC1OCc1ccc2c(c1)N(CCCOC)CCO2 [Example 14, (3′S,5S)-8-({[(2R)-2-Ethoxypropyl]oxy}methyl)-3′-{[4-(3-methoxypropyl)-3,4-dihydro-2H-1,4-benzoxazin-6-yl]methoxy}-2,3-dihydrospiro[1,4-benzo-dioxepine-5,4′-piperidine]]
